In test [1] the target is T1, Neuropeptide Y receptor type 2 (Homo sapiens, UniProt P49146).
T1 sequence (P49146 whole entry): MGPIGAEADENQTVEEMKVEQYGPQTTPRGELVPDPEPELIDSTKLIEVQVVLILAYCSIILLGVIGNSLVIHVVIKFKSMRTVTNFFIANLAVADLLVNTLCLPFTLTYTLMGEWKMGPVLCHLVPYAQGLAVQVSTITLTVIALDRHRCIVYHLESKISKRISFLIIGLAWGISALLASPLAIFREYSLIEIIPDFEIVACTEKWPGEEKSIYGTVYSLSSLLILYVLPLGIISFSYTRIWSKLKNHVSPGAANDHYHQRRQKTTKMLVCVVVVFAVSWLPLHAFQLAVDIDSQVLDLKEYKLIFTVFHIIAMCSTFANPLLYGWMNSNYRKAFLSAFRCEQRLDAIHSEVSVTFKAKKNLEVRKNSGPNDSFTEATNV
The test can be described thus: Displacement of human [125I]PYY from NPY2 receptor expressed in human KAN-TS cells. The format is cell-based.

Test [2] addresses T2, Neuropeptide Y receptor type 1 (Homo sapiens, UniProt P25929).
T2 sequence (P25929 whole entry): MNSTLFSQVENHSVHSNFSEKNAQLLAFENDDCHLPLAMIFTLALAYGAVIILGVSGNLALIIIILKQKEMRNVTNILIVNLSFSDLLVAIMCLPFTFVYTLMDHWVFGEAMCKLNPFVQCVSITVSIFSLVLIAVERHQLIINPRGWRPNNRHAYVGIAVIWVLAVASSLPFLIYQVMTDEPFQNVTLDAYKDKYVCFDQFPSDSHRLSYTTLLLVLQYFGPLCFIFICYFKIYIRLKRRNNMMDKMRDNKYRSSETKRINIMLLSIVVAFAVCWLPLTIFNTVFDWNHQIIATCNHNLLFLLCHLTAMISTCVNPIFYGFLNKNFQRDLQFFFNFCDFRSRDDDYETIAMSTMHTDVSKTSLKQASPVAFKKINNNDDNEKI
The test can be described thus: Displacement of [125I]PYY from NPY1 receptor expressed in human SK-N-MC cells. The format is cell-based. On the technique in general: Displacement assays read how much labelled ligand stays bound in the presence of the test substance.

The target of test [3] is T1, Neuropeptide Y receptor type 2. The test can be described thus: Agonist activity at human NPY2 receptor expressed in human KAN-TS cells by [35S]GTP-gamma-S incorporation assay. The test is classed as functional, cell-based. (GTPγS is a poorly hydrolysed GTP analogue; its binding reports G protein activation.)
Test [4] deals with T3, Neuropeptide Y receptor type 5 (Homo sapiens, UniProt Q15761).
T3 sequence (Q15761 whole entry): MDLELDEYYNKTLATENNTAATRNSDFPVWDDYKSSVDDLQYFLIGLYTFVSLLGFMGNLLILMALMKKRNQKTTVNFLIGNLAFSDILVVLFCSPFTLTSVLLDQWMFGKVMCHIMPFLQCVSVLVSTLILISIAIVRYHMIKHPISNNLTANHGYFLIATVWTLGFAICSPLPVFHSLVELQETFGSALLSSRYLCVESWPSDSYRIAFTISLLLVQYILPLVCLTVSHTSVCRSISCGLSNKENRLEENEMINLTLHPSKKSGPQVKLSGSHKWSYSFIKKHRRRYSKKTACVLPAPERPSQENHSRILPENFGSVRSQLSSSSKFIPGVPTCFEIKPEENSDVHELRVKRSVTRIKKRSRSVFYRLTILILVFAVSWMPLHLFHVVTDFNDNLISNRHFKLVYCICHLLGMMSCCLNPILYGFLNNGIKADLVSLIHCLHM
The test can be described thus: Displacement of [125I]PYY from NPY5 receptor expressed in human HEK293 cells. The format is cell-based.

Bridge positions count the residues as written; N and C are the ends. Peptide text beside a SMILES is read from it. Some results are limits rather than exact numbers.

This passage reports Ki and EC50 results from ChEMBL document CHEMBL1138389, “Identification of selective neuropeptide Y2 peptide agonists” (Bioorg Med Chem Lett, 2007).

As to `CC(=O)N[C@@H](C)C(=O)N[C@@H](CO)C(=O)N[C@@H](CC(C)C)C(=O)N[C@@H](CCCNC(=N)N)C(=O)N[C@@H](Cc1cnc[nH]1)C(=O)N[C@@H](Cc1ccc(O)cc1)C(=O)N[C@@H](CC(C)C)C(=O)N[C@@H](CC(N)=O)C(=O)N[C@@H](CC(C)C)C(=O)N[C@H](C(=O)N[C@H](C(=O)N[C@@H](CCCNC(=N)N)C(=O)N[C@@H](CCC(N)=O)C(=O)N[C@@H](CCCNC(=N)N)C(=O)N[C@@H](Cc1ccc(O)cc1)C(N)=O)[C@@H](C)O)C(C)C`, the Ki in test [1] was determined as 9 nM; in test [2], 118 nM. Moreover, the EC50 in test [3] is 13 nM.

`CC[C@H](C)[C@@H]1NC(=O)[C@H](CC(C)C)NC(=O)[C@H](CC(N)=O)NC(=O)[C@@H](NC(=O)[C@H](Cc2ccc(O)cc2)NC(=O)[C@H](Cc2cnc[nH]2)NC(=O)[C@H](CCCN=C(N)N)NC(C)=O)CCCCNC(=O)CC[C@@H](C(=O)N[C@@H](CCCN=C(N)N)C(=O)N[C@@H](CCC(N)=O)C(=O)N[C@@H](CCCN=C(N)N)C(=O)N[C@@H](Cc2ccc(O)cc2)C(N)=O)NC1=O` (Ac-RHYKNLIERQRY-NH2; lactam 4-8): the Ki was 75 nM in test [1] (kan-ts), above 1000 nM in test [2] (sk-n-mc) and above 1000 nM in test [4] (hek293). The compound also displayed an EC50 in test [3] (kan-ts) of 31 nM.

Turning to Ac-HYLNLVTRQRY-NH2, the figures for the Ki in test [1], in test [2] and in test [4] were 670 nM, above 1000 nM and above 1000 nM, respectively. Further, in test [3], the response was half-maximal at 430 nM (EC50).

By Ki is commonly meant the equilibrium dissociation constant of an inhibitor or competing ligand from its target. As a reminder, the EC50 is the concentration that produces a half-maximal response.
